# Assay results from ChEMBL document CHEMBL5346904 (Eur J Med Chem, 2023).
# Activity calls are given as the source filed them. No cut-off for these calls is given here.
# Key:
# [1] = Hemolytic activity in human RBC assessed as hemolysis incubated for 1 hr by absorbance based microplate reader analysis; type: toxicity, cell-based, Erythrocyte; conditions: human red blood cells (erythrocytes)
# [2] = tested on: Bacillus subtilis; experiment: Antimicrobial activity against Bacillus subtilis 168 assessed as inhibition of bacterial growth incubated for 48 hrs by CLSI based broth microdilution method; type: functional
# [3] = Selectivity index, ratio of EC50 for hemolytic activity in human RBC assessed as hemolysis to MIC for antimicrobial activity against Bacillus subtilis 168 assessed as inhibition of bacterial growth; type: toxicity; conditions: human red blood cells (erythrocytes), read-out: Selectivity Index
# [4] = tested on: Pseudomonas aeruginosa; experiment: Antimicrobial activity against Pseudomonas aeruginosa ATCC 27853 assessed as inhibition of bacterial growth incubated for 48 hrs by CLSI based broth microdilution method; type: functional
# [5] = tested on: Escherichia coli; experiment: Antimicrobial activity against Escherichia coli ATCC 25922 assessed as inhibition of bacterial growth incubated for 48 hrs by CLSI based broth microdilution method; type: functional
# [6] = Selectivity index, ratio of EC50 for hemolytic activity in human RBC assessed as hemolysis to MIC for antimicrobial activity against Staphylococcus aureus ATCC 9144 assessed as inhibition of bacterial growth; type: toxicity; conditions: human red blood cells (erythrocytes), read-out: Selectivity Index
# [7] = tested on: Staphylococcus aureus; experiment: Antimicrobial activity against Staphylococcus aureus ATCC 9144 assessed as inhibition of bacterial growth incubated for 48 hrs by CLSI based broth microdilution method; type: functional
# [8] = Selectivity index, ratio of EC50 for hemolytic activity in human RBC assessed as hemolysis to MIC for antimicrobial activity against Escherichia coli ATCC 25922 assessed as inhibition of bacterial growth; type: toxicity; conditions: human red blood cells (erythrocytes), read-out: Selectivity Index
# [9] = Selectivity index, ratio of EC50 for hemolytic activity in human RBC assessed as hemolysis to MIC for antimicrobial activity against Pseudomonas aeruginosa ATCC 27853 assessed as inhibition of bacterial growth; type: toxicity; conditions: human red blood cells (erythrocytes), read-out: Selectivity Index
# [10] = tested on: Escherichia coli; experiment: Antimicrobial activity against Escherichia coli K12 assessed as inhibition of bacterial growth incubated for 48 hrs by CLSI based broth microdilution method; type: functional
# [11] = tested on: Cell membrane; experiment: Disruption of membrane integrity in Bacillus subtilis 168 at 25.6 microg/ml measured for 180 sec by luciferase based bioluminescence assay; type: subcellular; conditions: dose 25.6 µg/ml
# [12] = tested on: Cell membrane; experiment: Disruption of inner membrane integrity in Escherichia coli K12 at 1.6 to 25.6 microg/ml measured for 3 mins by luciferase based bioluminescence assay; type: subcellular; conditions: dose 1.6-25.6 µg/ml
# [13] = tested on: Cell membrane; experiment: Disruption of membrane integrity in Bacillus subtilis 168 measured for 180 sec by luciferase based bioluminescence assay; type: subcellular; conditions: dose 1.6-51.2 µg/ml
# [14] = tested on: Escherichia coli; experiment: Antibacterial activity against Escherichia coli K12 assessed as reduction in bacterial viability measured for 3 min; type: functional, organism-based; conditions: dose 1.6-51.2 µg/ml
# [15] = tested on: Cell membrane; experiment: Induction of outer membrane permeabilization in Escherichia coli K12 assessed as increase in fluorescence intensity at 1.6 to 51.2 microg/ml measured for […] by NPN uptake assay; type: subcellular; conditions: dose 1.6-51.2 µg/ml
# [16] = tested on: Escherichia coli; experiment: Antibacterial activity against Escherichia coli K12 assessed as reduction in bacterial viability at 1.6 to 51.2 microg/ml measured for 3 min; type: functional, organism-based; conditions: dose 1.6-51.2 µg/ml
# [17] = tested on: Cell membrane; experiment: Disruption of inner membrane integrity in Escherichia coli K12 at 51.2 microg/ml measured for 3 mins by luciferase based bioluminescence assay; type: subcellular; conditions: dose 51.2 µg/ml
# [18] = tested on: Cell membrane; experiment: Disruption of inner membrane integrity in Escherichia coli K12 at 51.2 microg/ml measured for 180 sec by luciferase based bioluminescence assay; type: subcellular; conditions: dose 51.2 µg/ml
# [19] = tested on: Escherichia coli; experiment: Antibacterial activity against Escherichia coli K12 assessed as reduction in bacterial viability at 51.2 microg/ml measured for 3 min; type: functional, organism-based; conditions: dose 51.2 µg/ml
# [20] = tested on: Bacillus subtilis; experiment: Antibacterial activity against Bacillus subtilis 168 assessed as reduction in bacterial viability at 1.6 to 51.2 microg/ml measured after 3 min; type: functional, organism-based; conditions: dose 1.6-51.2 µg/ml
# [21] = tested on: Cell membrane; experiment: Disruption of outer membrane integrity in Escherichia coli K12 assessed as increase in fluorescence intensity at 51.2 microg/ml measured for 3 mins by NPN uptake assay; type: subcellular; conditions: dose 51.2 µg/ml
# [22] = tested on: Cell membrane; experiment: Disruption of membrane integrity in Bacillus subtilis 168 at 25.6 to 51.2 microg/ml measured for 180 sec by luciferase based bioluminescence assay; conditions: dose 25.6-51.2 µg/ml
SMILES,EC50 at 1 h [1] [µg/mL],MIC [2] [µg/mL],selectivity ratio [3],MIC [4] [µg/mL],MIC [5] [µg/mL],selectivity ratio [6],MIC [7] [µg/mL],further results
N=C(N)NCCCN1C(=O)N(CCCNC(=N)N)C(Cc2ccc(Br)c(Cl)c2)(Cc2ccc(Br)c(Cl)c2)C1=O,> 467,2,> 234,64,32,> 234,2,
NCCCN1C(=O)N(CCCN)C(=O)C(Cc2cc(Br)cc(Br)c2)(Cc2cc(Br)cc(Br)c2)C1=O.O=C(O)C(F)(F)F.O=C(O)C(F)(F)F,,4,,8,8,,4,
N=C(N)NCCCCN1C(=O)N(CCCCNC(=N)N)C(Cc2ccc(C(F)(F)F)cc2)(Cc2ccc(C(F)(F)F)cc2)C1=O.O=C(O)C(F)(F)F.O=C(O)C(F)(F)F,> 503,4,,> 128,64,,4,
NCCCN1C(=O)N(CCCN)C(Cc2ccc(C(F)(F)F)cc2)(Cc2ccc(C(F)(F)F)cc2)C1=O.O=C(O)C(F)(F)F.O=C(O)C(F)(F)F,> 379,16,,> 256,256,,64,
N=C(N)NCCCN1C(=O)N(CCCNC(=N)N)C(Cc2cc(C(F)(F)F)cc(C(F)(F)F)c2)(Cc2cc(C(F)(F)F)cc(C(F)(F)F)c2)C1=O,> 489,2,> 245,32,32,> 122,4,
NCCCN1C(=O)N(CCCN)C(Cc2ccc(Br)c(Cl)c2)(Cc2ccc(Br)c(Cl)c2)C1=O.O=C(O)C(F)(F)F.O=C(O)C(F)(F)F,368,4,,32,32,,8,
N=C(N)NCCCCN1C(=O)N(CCCCNC(=N)N)C(Cc2cc(Br)cc(Br)c2)(Cc2cc(Br)cc(Br)c2)C1=O.O=C(O)C(F)(F)F.O=C(O)C(F)(F)F,206,1,206,16,4,206,1,selectivity ratio [8]: 52; selectivity ratio [9]: 13
NCCCCN1C(=O)N(CCCCN)C(Cc2cc(C(F)(F)F)cc(C(F)(F)F)c2)(Cc2cc(C(F)(F)F)cc(C(F)(F)F)c2)C1=O.O=C(O)C(F)(F)F.O=C(O)C(F)(F)F,> 461,4,,64,64,,16,
NCCCCN1C(=O)N(CCCCN)C(Cc2ccc(C(F)(F)F)cc2)(Cc2ccc(C(F)(F)F)cc2)C1=O.O=C(O)C(F)(F)F.O=C(O)C(F)(F)F,> 393,16,,> 128,> 128,,64,
NCCCN1C(=S)N(CCCN)C(Cc2cc(Br)cc(Br)c2)(Cc2cc(Br)cc(Br)c2)C1=S.O=C(O)C(F)(F)F.O=C(O)C(F)(F)F,385,8,,32,16,,8,
N=C(NCCCCCCNC(=N)NC(=N)Nc1ccc(Cl)cc1)NC(=N)Nc1ccc(Cl)cc1 [CHLORHEXIDINE],,1.5,,,,,,MIC [10]: 1.5 µg/mL
NCCCN1C(=O)N(CCCN)C(Cc2ccc(Br)c3ccccc23)(Cc2ccc(Br)c3ccccc23)C1=O.O=C(O)C(F)(F)F.O=C(O)C(F)(F)F,69,4,,8,8,,4,
NCCCOc1nc(Cc2cc(Br)cc(Br)c2)c(Cc2cc(Br)cc(Br)c2)n1CCCN.O=C(O)C(F)(F)F.O=C(O)C(F)(F)F,44,2,,4,4,,2,
NCCCn1c(Cc2cc(Br)cc(Br)c2)c(Cc2cc(Br)cc(Br)c2)n(CCCN)c1=O.O=C(O)C(F)(F)F.O=C(O)C(F)(F)F,52,1,,8,4,,2,
NCCCN1C(=O)N(CCCN)C(Cc2cc(Br)cc(Br)c2)(Cc2cc(Br)cc(Br)c2)C1=O.O=C(O)C(F)(F)F.O=C(O)C(F)(F)F,344,4,86,8,16,43,8,selectivity ratio [8]: 22; selectivity ratio [9]: 43
N=C(N)NCCCN1C(=O)N(CCCNC(=N)N)C(Cc2cc(Br)cc(Br)c2)(Cc2cc(Br)cc(Br)c2)C1=O.O=C(O)C(F)(F)F.O=C(O)C(F)(F)F,486,4,122,32,16,243,2,selectivity ratio [8]: 30
N=C(N)NCCCN1C(=O)N(CCCNC(=N)N)C(Cc2ccccc2)(Cc2ccccc2)C1=O.O=C(O)C(F)(F)F.O=C(O)C(F)(F)F,> 353,128,,> 256,> 256,,64,
N=C(N)NCCCCN1C(=O)N(CCCCNC(=N)N)C(Cc2ccc(Br)c(Cl)c2)(Cc2ccc(Br)c(Cl)c2)C1=O.O=C(O)C(F)(F)F.O=C(O)C(F)(F)F,347,1,347,32,8,347,1,selectivity ratio [8]: 43; Activity [11]: Active; Activity [12]: inactive; Activity [13]: Dose-Dependent Effect; Activity [14]: Dose-Dependent Effect; Activity [15]: Active; Activity [16]: inactive; Activity [17]: Active; Activity [18]: inactive; Activity [19]: Active; Activity [20]: Active; Activity [21]: Active; Activity [22]: Active
NCCCCN1C(=O)N(CCCCN)C(Cc2ccc(Br)c(Cl)c2)(Cc2ccc(Br)c(Cl)c2)C1=O.O=C(O)C(F)(F)F.O=C(O)C(F)(F)F,> 439,4,> 110,64,64,> 55,8,
NCCCCN1C(=O)N(CCCCN)C(Cc2cc(Br)cc(Br)c2)(Cc2cc(Br)cc(Br)c2)C1=O.O=C(O)C(F)(F)F.O=C(O)C(F)(F)F,364,2,,32,32,,8,
NCCCN1C(=O)N(CCCN)C(Cc2cc(C(F)(F)F)cc(C(F)(F)F)c2)(Cc2cc(C(F)(F)F)cc(C(F)(F)F)c2)C1=O.O=C(O)C(F)(F)F.O=C(O)C(F)(F)F,399,8,50,16,16,25,16,selectivity ratio [8]: 25; selectivity ratio [9]: 25
N=C(N)NCCCCN1C(=O)N(CCCCNC(=N)N)C(Cc2cc(C(F)(F)F)cc(C(F)(F)F)c2)(Cc2cc(C(F)(F)F)cc(C(F)(F)F)c2)C1=O.O=C(O)C(F)(F)F.O=C(O)C(F)(F)F,384,2,192,32,8,192,2,selectivity ratio [8]: 48
NCCCN1C(=O)N(CCCN)C(Cc2ccccc2)(Cc2ccccc2)C1=O.O=C(O)C(F)(F)F.O=C(O)C(F)(F)F,> 311,256,,> 256,> 256,,> 256,
N=C(N)NCCCN1C(=O)N(CCCNC(=N)N)C(Cc2ccc(Br)c3ccccc23)(Cc2ccc(Br)c3ccccc23)C1=O.O=C(O)C(F)(F)F.O=C(O)C(F)(F)F,206,2,103,32,8,103,2,selectivity ratio [8]: 26
N=C(N)NCCCN1C(=O)N(CCCNC(=N)N)C(Cc2ccc(C(F)(F)F)cc2)(Cc2ccc(C(F)(F)F)cc2)C1=O.O=C(O)C(F)(F)F.O=C(O)C(F)(F)F,> 421,8,,> 256,128,,16,
